Experimental data reported in US9505834B2, “Methods for controlling the galactosylation profile of recombinantly-expressed proteins” (AbbVie Inc., priority 2011, dated 2016).
Read-outs that look alike come from different tables or passages of the source.

Experiments:
[1] = tested on: adalimumab-producing CHO cell line #2; test: Example 4 culture growth & productivity; assay type: cell-based, Chinese Hamster; details: galactose 0 to 20 mM and/or manganese chloride 0 to 40 μM
Description: (§1) For all studies with CHO cell lines described throughout this invention, samples were collected daily and measured for cell density and viability using a Cedex cell counter. Retention samples for titer analysis via Poros A method were collected by centrifugation at 12,000 RPM for 5 min when the culture viability began declining. The cultures were harvested by collecting 125 mL aliquots and centrifuging at 3,000 RPM for 30 min when culture viability was near or below 50%. All supernatants were stored at −80° C. until analysis.
Growth and production media for the adalimumab-producing CHO cell line #2 were prepared using a proprietary Life Technologies Gibco chemically defined media, GIA-1. […] All media were filtered through Corning 0.5 L or 1 L filter systems (0.22 μm PES) and stored at 4° C. until use.
Upon thaw, cells were expanded for 5 to 8 (2 to 3 day each) passages in a combination of 250 mL, 500 mL, and 1000 mL Corning vented non-baffled shake flasks. Production cultures were initiated in duplicate 500 mL Corning vented non-baffled shake flasks (200 mL working volume) at an initial VCD of approximately 0.5×10^6 cells/mL. Cultures were maintained on orbital shakers at 180 RPM in a dry incubator at 35° C. and 5% CO2. A glucose solution (1.25% (v/v) of 40% solution) was fed when the media glucose concentration fell below 3 g/L. […]

[2] = tested on: CHO cell line producing mAb #2
Description: as §1
Growth and production media for the mAb #2 producing CHO cell line were prepared using the proprietary Life Technologies Gibco chemically defined media, GIA-1.
Upon thaw, cells were expanded in Corning vented non-baffled shake flasks maintained on orbital shakers at 140 RPM, and in 10 L cell bags (2 L working volume) maintained at 25 RPM, 7° angle, 0.25 SLPM airflow in a dry incubator at 36° C. and 5% CO2. Production cultures were initiated in 3 L bioreactors (1.5 L initial working volume) at 36° C., 25% dissolved oxygen, 200 RPM, and pH 7.0. The chemically-defined feed from Life Technologies Gibco JCL-5 was added as follows: 3% (v/v)—day 3, 5%—day 5, 7%—day 7, 10%—day 9, and 10%—day 11. […] Bioreactors were harvested at viability of approximately 70% or below or on production day 15, whichever condition occurred first. […]

[3] = tested on: adalimumab-producing CHO cell line; details: 10 μM manganese chloride; within historical variation
Description: as §1
All media were filtered through Corning 0.5 L or 1 L filter systems (0.22 μm PES) and stored at 4° C. until use.
Production cultures were initiated in duplicate 500 mL Corning vented non-baffled shake flasks (200 mL working volume) at an initial VCD of approximately 0.5×10^6 cells/mL. Cultures were maintained on orbital shakers at 110 RPM in a dry incubator at 35° C. and 5% CO2. A glucose solution (1.25% (v/v) of 40% solution) was fed when the media glucose concentration fell below 3 g/L.

[4] = tested on: adalimumab-producing CHO cell line #3; test: Example 5 culture growth & productivity; assay type: cell-based, Chinese Hamster; details: 30 mM galactose alone
Description: as §1
Growth and production media for the adalimumab-producing CHO cell line #3 were prepared using the proprietary Life Technologies Gibco chemically defined media, GIA-1.
Upon thaw, cells were expanded in Corning vented non-baffled shake flasks maintained on orbital shakers at 140 RPM, and in 10 L cell bags (2 L working volume) maintained at 25 RPM, 7° angle, and 0.25 SLPM airflow in a dry incubator at 36° C. and 5% CO2. Production cultures were initiated in 3 L bioreactors (1.4 L initial working volume) at 36° C., 30% dissolved oxygen, 200 RPM, and pH 6.9±0.2. A fixed split ratio of cells to media of 1:6.7 was utilized to initiate the production stage cultures. A temperature shift was performed when the culture VCD reached a value higher than 5×10^6 cells/mL. […]

| Compound | culture growth, viability profiles, and harvest titer [1] | growth profile ([2]; 25 μM manganese chloride alone) | growth profile ([2]; manganese chloride 50 μM or 75 μM) | maximum VCD compared to all other cultures [3] | growth profile [4] |
| --- | --- | --- | --- | --- | --- |
| Manganese (II) Chloride [manganese chloride] | comparable to the control cultures | grew slower after production day 7 | growth profiles comparable to the control culture | slightly higher maximum VCD |  |
| O=C[C@H](O)[C@@H](O)[C@@H](O)[C@H](O)CO [galactose, D(+)Galactose] | comparable to the control cultures |  |  |  | grew slower and reached a lower peak VCD |
